# Test results taken from PMC11815855, “Exploring the Structure–Activity Relationships of Albumin-Targeted Picoplatin-Based Platinum(IV) Prodrugs” (Inorganic Chemistry, 2025).
# Marks after values point to notes of the source that are not given here.
# Assays:
# CT26 colon cancer cells [1] = assay: Colony formation (clonogenic) assay, CT26, 7 days; assay type: cell-based, murine; conditions: 7 days drug exposure
# Description: (§1) For the cell culture assays, the human ovarian model A2780/wt and its corresponding cisplatin-resistant subline A2780/cis (both purchased from Sigma and cultured in RPMI1640 medium), the human colorectal cancer model HCT116 (cultured in McCoy′s medium), and the murine (Balb/c) colorectal cancer model CT26 (cultured in DMEM/F-12 (1:1) medium) were used. The colon cancer models were purchased from the American Type Culture Collection (ATCC). The media were supplemented with 10% FCS (purchased from PAA Linz, Austria). To maintain drug resistance of A2780/cis, the subline was cultivated under continuous selection pressure (1 μM cisplatin). The selection drug was removed 1 week before the experiments were performed. Cell cultures were maintained at 37 °C in humidified atmosphere containing 5% CO2. All cultures were free of antibiotics and regularly checked for mycoplasma contamination. All cell culture media and reagents were purchased from Sigma-Aldrich Austria. All investigated drugs were dissolved in either water (oxaliplatin, carboplatin) or DMF before further dilution in cell culture medium. DMF concentrations were always below 0.5%.
# (§2) Then, cells were exposed to the indicated drugs in rising concentrations. After 7 days, the cells were fixed with methanol for 20 min at 4 °C and stained with crystal violet 5 (0.01% in PBS). The fluorescence of the crystal violet was detected by the Typhoon scanner (Typhoon TRIO Variable Mode Imager, GE Healthcare Life Sciences) after excitation by the red laser (633 nm). Quantification was done with ImageJ software.
# [2] = test system: HCT116 colon cancer cells; assay: Colony formation (clonogenic) assay, HCT116, 7 days; assay type: cell-based, human; conditions: 7 days drug exposure, clonogenic assay
# Description: as §1, §2
# [3] = Stability of platinum(II) complexes in PBS or PB, NMR; assay type: physicochemical; conditions: 1 mM, pH 7.4, 37 °C, 8 h incubation, no GSH
# Protocol: (§3) An 1 mM solution of Pt compound was incubated in a mixture of 90% PB or PBS (150 mM, pH 7.4) and 10% D2O at 37 °C with and without the addition of 10 equiv GSH. The reaction was monitored with ^1H or [^1H, ^15N] […] The reference spectrum was shifted with a value of −0.5 ppm compared to the original ppm value calibrated to D2O before overlay with a spectrum at a single time point. In case of ^15N-cisplatin, the cross-peak of the parental complex in [^1H, ^15N] HSQC at time point 0 h was used as reference, and spectral overlay was achieved by shifting the 2D spectra at all given time points (2, 4, 6, and 8 h) with vertical steps of +14 ppm compared to the original ^15N NMR ppm value of the parental complex.
# [4] = test system: HCT116 colon cancer cells; assay: MTT-based cell viability assay, HCT116, 72 h; design: species or system human; conditions: 72 h drug exposure
# Description: as §1
# (§4) Subsequently, the cells were incubated with the tested compounds in rising concentrations. […] The received data were visualized as dose–response curves by Graph Pad Prism 5 software (Graph Pad software, USA).
# [5] = Interaction of platinum(II) complexes with 10 equiv GSH, NMR; assay type: physicochemical; conditions: 1 mM complex, 10% D2O/90% PBS pH 7.4, 37 °C
# Protocol: The amount of remaining platinum(II) complex was monitored via ^1H NMR spectroscopy and, particularly for ^15N-cisplatin, via [^1H, ^15N] heteronuclear single quantum coherence (HSQC) NMR spectroscopy (Figure 1).[47]
# as §3
# CT26 colon cancer cells [6] = assay: MTT-based cell viability assay, CT26, 72 h; design: species or system murine; conditions: 72 h drug exposure
# Description: as §1, §4
# [7] = test system: A2780/cis ovarian cancer cells; assay: MTT-based cell viability assay, A2780/cis (cisplatin-resistant), 72 h; design: species or system human; conditions: for IC50: 72 h drug exposure, cisplatin-resistant subline, means of independent experiments; for IC50 / IC50 in A2780/cis compared to A2780/wt: MTT-based assay; for IC50 in A2780/cis compared to A2780/wt / RF (resistance factor): 72 h; for RF (resistance factor): fold-change between IC50 values of A2780/cis:A2780/wt
# Description: as §1, §4
# [8] = test system: A2780/wt ovarian cancer cells; assay: MTT-based cell viability assay, A2780/wt, 72 h; design: species or system human; conditions: 72 h drug exposure, means of independent experiments
# Description: as §1, §4
# CT26 tumors = assay: Anticancer activity in vivo, CT26-bearing Balb/c mice; conditions: i.v. on days 3 and 10, dose equimolar to 20 mg/kg picoplatin
# Protocol: Ten-week-old Balb/c mice were purchased from Envigo Laboratories (San Pietro al Natisone, Italy). […] Animals were controlled for distress development every day, and tumor size was assessed regularly by caliper measurement. Tumor volume was calculated using the formula: (length × width^2)/2.
# CT26 cells (5 × 10^5 in serum-free medium) were injected subcutaneously into the right flank of male Balb/c mice. Therapy was started when tumor nodules were palpable (day 3). […] Mice were sacrificed by cervical dislocation in the case of a tumor length >20 mm, tumor ulceration, or other signs for distress.
# [9] = Reduction kinetics of platinum(IV)-succinimide complexes with AA, UHPLC; assay type: physicochemical; conditions: 1 mM, 10 equiv AA, 150 mM PB pH 7.4, 20 °C, 6 h
# Protocol: Platinum(IV) prodrugs need to be reduced in the tumor environment to release the cytotoxic platinum(II) complexes. Thus, the reduction properties of Pico-Succ, PicoCarbo-Succ, and PicoOxali-Succ were investigated. As mentioned above, succinimide complexes were used for these studies to avoid competitive hydrolysis of the maleimide moiety. All platinum(IV)-succinimide complexes were incubated in both the absence and presence of a 10-fold excess L-ascorbic acid (AA) in PB at pH 7.4 and 20 °C over 6 h. The amount of remaining intact platinum(IV) complex at given time points was measured via ultrahigh performance liquid chromatography (UHPLC), as shown in Figure 2. Pico-Succ was reduced extremely fast, with only traces of the original complex left in the first measurement after ∼5 min of incubation. Even with equimolar amounts of AA, 90% of Pico-Succ was already reduced after ∼5 min (Figure S6). This level of reductive instability is exceptionally high, even when compared to the “fast” reducing cisplatin(IV) prodrugs, which show a complete conversion after ∼10 h in the presence of 10 equiv AA.[41],[53]
# (§5) PB (150 mM, pH 7.4) containing 1 mM Pt compound was incubated at 20 °C with and without the addition of 10 equiv L-ascorbic acid or reduced GSH. The reaction was monitored on a Thermo Scientific Dionex UltiMate 3000 UHPLC-system using a Waters Acquity UPLC BEH C18 1.7 μm, 3.0 × 50 mm column. Milli-Q water containing 0.1% formic acid and acetonitrile containing 0.1% formic acid were used as eluents. A gradient of 5–95% over 5 min was used with a flow of 0.6 mL/min. To evaluate the reaction process, we used the peak area of the parental complex.
# [10] = Reduction of platinum(IV)-succinimide complexes with 10 equiv GSH, UHPLC; assay type: physicochemical; conditions: 1 mM, 150 mM PB pH 7.4, 20 °C, 6 h
# Description: It is well-known that platinum(IV) complexes derived from, e.g., oxaliplatin or carboplatin, bearing leaving groups other than chlorido ligands, have distinctly slower reduction rates compared to cisplatin(IV) analogs.[54] This can be explained by a bridging interaction between the chlorido ligands and the reducing agent, which facilitates electron transfer to the platinum center.[55] […] The reductive behavior was also investigated in the presence of 10 equiv GSH in coherence with the above investigated interactions of platinum(II) with GSH (Figure S8).
# as §5
# albumin = albumin (Bos taurus, UniProt P02769); assay: Albumin binding and stability in phosphate-buffered FCS, SEC-ICP-MS; conditions: 50 μM in FCS (150 mM PB, pH 7.4), 37 °C, over 25 h; 195Pt only in LMWF
# albumin, sequence (P02769 25-607): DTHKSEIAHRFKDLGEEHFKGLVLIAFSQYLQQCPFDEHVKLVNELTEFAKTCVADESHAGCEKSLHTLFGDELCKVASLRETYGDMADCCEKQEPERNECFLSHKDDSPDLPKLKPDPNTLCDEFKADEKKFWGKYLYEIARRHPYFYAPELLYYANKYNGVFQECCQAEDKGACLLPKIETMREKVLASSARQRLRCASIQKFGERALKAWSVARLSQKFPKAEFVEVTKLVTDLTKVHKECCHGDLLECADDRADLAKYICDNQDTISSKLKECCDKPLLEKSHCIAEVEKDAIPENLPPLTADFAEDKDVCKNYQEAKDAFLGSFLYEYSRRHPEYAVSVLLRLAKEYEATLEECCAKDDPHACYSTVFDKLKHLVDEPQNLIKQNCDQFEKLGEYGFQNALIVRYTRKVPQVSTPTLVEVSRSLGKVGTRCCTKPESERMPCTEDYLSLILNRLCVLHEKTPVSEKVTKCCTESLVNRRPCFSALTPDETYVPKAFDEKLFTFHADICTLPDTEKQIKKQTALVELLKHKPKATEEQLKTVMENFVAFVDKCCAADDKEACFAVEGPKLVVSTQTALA
# Protocol: FCS was purchased from Sigma-Aldrich and buffered with 150 mM phosphate pH 7.4 in order to guarantee a stable pH. The platinum(IV) complexes were dissolved in 150 mM PB (pH 7.4) at a concentration of 5 mM and diluted 1:100 in buffered serum to obtain a final concentration of 50 μM. […] Between each sample, a pure water blank was measured. […] Oxygen (purity 5.5, Messer Austria GmbH, Gumpoldskirchen, Austria) was used as the reaction gas.
# horse heart CytC = target: T1, horse heart CytC (Equus caballus, UniProt P00004); assay: Reduction with cytochrome C and NADH, UHPLC; assay type: biochemical; conditions: 700 μM, 0.1 equiv CytC and 10 equiv NADH, 50 mM PB pH 6.0, 37 °C
# T1 construct: 0.1 equiv horse heart CytC; from tissue; host or cells: horse heart
# T1 sequence (P00004 whole entry): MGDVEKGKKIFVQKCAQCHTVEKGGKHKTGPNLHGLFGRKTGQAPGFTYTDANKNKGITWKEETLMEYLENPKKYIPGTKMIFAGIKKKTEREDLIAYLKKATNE
# Description: (§6) To explain the rather unusual in vivo findings, especially with respect to Pico-Mal, we hypothesized that inefficient reductive release of the platinum(II) core from albumin due to steric hindrance of the 2-picoline could provide a plausible explanation for the lack of antitumor activity despite a favorable pharmacokinetic profile. […] To gain insights into whether the molecular weight and thus steric demands of the reducing agent impact the reduction of picoplatin(IV) derivatives, Pico-Succ and the reference complex Cis-Succ were analyzed in the presence of cytochrome C (CytC; ∼12,000 g/mol) or AA (176 g/mol). Therefore, Pico-Succ and Cis-Succ (for synthesis and ^1H NMR characterization, see experimental part and Scheme S1) were coincubated at pH 6.0 with 0.1 equiv CytC[60] and 10 equiv reduced NADH or with 10 equiv AA at 37 °C over 4 h, and the reduction kinetics were compared relatively. The amount of remaining intact platinum(IV) complex at given time points was measured via UHPLC (Figure 6). […]
# (§7) PB (50 mM, pH 6.0) containing 700 μM Pt compound was incubated at 37 °C with the addition of 0.1 equiv horse heart CytC and 10 equiv reduced NADH or with 10 equiv L-ascorbic acid. The reaction was monitored on a Thermo Scientific Dionex UltiMate 3000 UHPLC-system using a Waters Acquity UPLC BEH peptide C18 1.7 μm 2.1 × 100 mm column. […]
# [11] = Reduction with 10 equiv AA at pH 6.0 and 37 °C, UHPLC; assay type: physicochemical; conditions: 700 μM, 50 mM PB pH 6.0, 37 °C, 4 h
# Description: as §6, §7
Compound,IC50 (CT26 colon cancer cells [1]),IC50 [2],complex left in 10% D2O/90% PBS [3],IC50 [4],IC50 (CT26 colon cancer cells [6]),IC50 [7],IC50 [8],other results
"Cc1ccccn1.N.O=C1[O][Pt][O]C(=O)C12CCC2 [PicoCarbo, (SP-4-4)[(Ammine)(cyclobutane-1,1-dicarboxylato)(2-methylpyridine)platinum(II)]]",26.3 µM,90 µM,> 95%,> 100 µM,74.5 µM,> 100 µM,> 100 µM,"intact platinum(II) complex left after 8 h with GSH ([5]; 8 h, 1H NMR): ~90%"
"CC(=O)[O][Pt]1([O]C(=O)NCCN2C(=O)C=CC2=O)[O]C(=O)C2(CCC2)C(=O)[O]1.Cc1ccccn1.N [PicoCarbo-Mal, (OC-6-21)[Acetato(ammine)(cyclobutane-1,1-dicarboxylato)(1-(2-isocyanatoethyl)-1H-pyrrole-2,5-dione)(2-methylpyridine)platinum(IV)]]",,,,,,,,impact on tumor growth (CT26 tumors): significantly inhibited tumor growth
"CC(=O)[O][Pt]1([O]C(=O)NCCN2C(=O)CCC2=O)[O]C(=O)C2(CCC2)C(=O)[O]1.Cc1ccccn1.N [PicoCarbo-Succ, (OC-6-21)[Acetato(ammine)(cyclobutane-1,1-dicarboxylato)(1-(2-isocyanatoethyl)pyrrolidine-2,5-dione)(2-methylpyridine)platinum(IV)]]",> 100 µM,> 100 µM,,> 100 µM,> 100 µM,> 100 µM,> 100 µM,intact platinum(IV) complex left after 6 h with AA [9]: ~90%; reduction with 10 equiv GSH over 6 h [10]: no notable reduction
"CC(=O)[O][Pt]1([O]C(=O)NCCN2C(=O)CCC2=O)[O]C(=O)C(=O)[O]1.Cc1ccccn1.N [PicoOxali-Succ, (OC-6-21)[Acetato(ammine)(1-(2-isocyanatoethyl)pyrrolidine-2,5-dione)(2-methylpyridine)(oxalato)platinum(IV)]]",> 100 µM,> 100 µM,,> 100 µM,> 100 µM,> 100 µM,> 100 µM,albumin conjugation (albumin): no albumin conjugation; intact platinum(IV) complex left after 6 h with AA [9]: ~70%; reduction with 10 equiv GSH over 6 h [10]: no notable reduction
Cc1ccccn1.N.O=C1[O][Pt][O]C1=O [PicoOxali],7.26 µM,15.8 µM,readily degraded,> 100 µM,33.7 µM,46 µM,33.4 µM,complex left in 10% D2O/90% PB [3]: > 90%; IC50 in A2780/cis compared to A2780/wt [7]: 1.4 fold; RF (resistance factor) [7]: 1.4^ns
"[15NH3].[15NH3].[Cl][Pt][Cl] [^15N-cisplatin, cis-[PtCl2(^15NH3)2]]",,,> 95%,,,,,"platinum(II) complex left after 2 h with GSH ([5]; 2 h, [1H,15N] HSQC NMR): ~20%; platinum(II) complex reacted with GSH after 4 h ([5]; 4 h): nearly complete reaction"
"N.N.[Cl][Pt][Cl] [cisplatin, reference compound]",0.46 µM,0.82 µM,,3.15 µM,2.17 µM,7.81 µM,1.54 µM,IC50 in A2780/cis compared to A2780/wt [7]: 5.1 fold; RF (resistance factor) [7]: 5.1****
"(OC-6-44)[Acetatodiamminedichlorido[2-(2,5-dioxopyrrolidin-1-yl)butyl)carbamato]platinum(IV)] [Cis-Succ, reference compound]",,,,,,,,time to complete reduction with CytC (horse heart CytC): 4 h; reduction with AA after 4 h [11]: ~40%
